Test results taken from patent publication US9175038B2, “Peptide mimetic ligands of polo-like kinase 1 polo box domain and methods of use” (The United States of America, as represented by the …, priority 2009, dated 2015).
“Also recorded” adds a separate entry of the source. Where two headings read alike, the source gives them in different places. Starred links: 1 amine or outer side, 2 acyl side, 3 side chain; linkers in the order of their positions; H or OH if unused. Non-standard residues stand in square brackets, D forms with d. Residues, ends and D or L forms follow the SMILES beside them. No end group written: not given here. X4 = C[C@@H](OP(=O)(O)OCCCCc1ccccc1)[C@H](N[*:1])C(=O)[*:2]; X3 = O=C([C@H](Cc1cncn1CCCCc1ccccc1)N[*:1])[*:2]; X2 = O=C(CN(CCCCCCCc1ccccc1)[*:1])[*:2]; pT = C[C@@H](OP(=O)(O)O)[C@H](N)C(=O)O; NPentylGly = CCCCCNCC(=O)O

Columns and labels:
[1] = molecular target: HA-EGFP-Plk1 (Homo sapiens, UniProt P53350); experiment: ELISA-based PBD-binding inhibition assay (HA-EGFP-Plk1 binding to immobilized biotinylated p-T78 peptide)
[2] = test system: Plk1 localization to the centrosomes in HeLa cells; experiment: Acute Cdc2 inhibition in nocodazole-arrested HeLa cells, Plk1 localization; format: cell-based, human; settings: 200 nM, 10 min
Method: HeLa cells were cultured as subconfluent monolayers under the conditions recommended by American Type Culture Collection (Manassas, Va.). […] No mitotic exit was observed during the period of 10 min BMI-1026 treatment. For microinjection experiments with the Pmab-containing mimetic peptides, cells were arrested for 16 h with 2.5 mM thymidine (Sigma) and released into fresh medium. Two hours after release from the S phase block, the indicated peptides (2.5 mM stock in PBS) were microinjected into the cells using Eppendorf® Transjector 5246 (Eppendorf®, Westbury, N.Y.) at the 150 hPa pressure level and the 0.5 second injection time. All the cells in a single grid were injected and then further incubated to monitor cell cycle progression. For microinjection experiments with the F2Pmab-containing mimetic peptides, cells were arrested with 2.5 mM thymidine for 16 h twice with a 9 h release interval, and then released into fresh medium. Seven hours after release from the G1/S phase block, the indicated peptides (4 mM stock in PBS) were microinjected similarly as above. Where indicated, peptides containing the final concentration of 30 ng/μl of pEGFP-C1 vector (Clontech®, Mountain View, Calif.) were used to visualize the injected cells.

[3] = molecular target: T1, Plk1 PBD (Homo sapiens, UniProt P53350); experiment: Isothermal titration calorimetry with recombinant Plk1 PBD; format: binding; settings: Table 1
T1 construct: Two forms of Plk1 PBD (residues 326-603 and residues 367-603) were expressed as fusion constructs; His6-DsRed (N, cleaved yes); made in house; host or cells: E. coli BL21(DE3)pLysS or Rosetta 2
Method: Isothermal titration calorimetry analyses. The calorimetric titrations were carried out using purified recombinant PBDs (for Plk1 and Plk2) from bacterial cells and the indicated peptides. Further details are presented in Online Supplemental Materials.
Isothermal titration calorimetry analyses. The calorimetric titrations were performed on a VP-ITC titration calorimeter (Microcal, Inc., Northampton, Mass.). In a typical experiment, 5 μl aliquots of a phosphorylated peptide were injected from a 250 μl syringe into a rapidly mixing (300 rpm) solution of Plk1 PBD (cell volume=1.3472 ml). Control experiments involved injecting identical amounts of the peptide solution into buffer without Plk1 PBD. […] Titrations were carried out at 25° C. in 20 mM Tris-Cl (pH 7.5), 100 mM NaCl, 3 mM DTT. The isotherms, corrected for dilution/buffer effects, were fit using the Origin ITC Analysis software according to manufacturer's protocols. A nonlinear least-square method was used to fit the titration data and to calculate the errors. Consistent with the structural data, a 1:1 stoichiometry was assumed and the data were fit to a one-site binding model. From the binding curve, values for enthalpy and binding affinity were extracted. Thermodynamic parameters were calculated using ΔG=−RTlnKa, ΔG=ΔH−TΔS.
A TEV protease cleavage site was engineered between the tag and PBD. […] Cells were grown to an optical density of 0.4 at 30° C. with vigorous shaking. The cultures were cooled to 20° C., induced by addition of IPTG to a final concentration of 0.4 mM, and incubated for 12 h. The cells were harvested and the pellets were frozen prior to lysis. All subsequent purification was done at 4° C. The frozen pellets were thawed in buffer A (20 mM Tris-Cl, pH 8.0, 500 mM NaCl, 3 mM DTT) and lysed by addition of 4% v/v BugBuster 10× protein extraction reagent (Novagen) and 0.1 mg/ml of DNase I (Sigma). The lysate was centrifuged at 40000×g for 30 minutes to pellet the cell debris and filtered through a 0.2 μm filter. The lysate was loaded onto HisTrap HP columns (Amersham Biosciences, Piscataway, N.J.) with 100 mM imidazole, washed with 100 mM imidazole in buffer A, and eluted with 500 mM imidazole in buffer A. The peaks containing the fusion protein were digested with TEV protease (1:100 molar ratio) overnight by dialysis against buffer A. The digestion was reloaded onto HisTrap HP column without imidazole, washed with buffer A, and eluted with 80 mM imidazole in buffer A. A HiLoad 16/60 Superdex 75 gel filtration column (Amersham) equilibrated with buffer A was used as the final step in purification. Full length PBD was dialyzed against a low salt buffer (20 mM Tris-Cl, pH 7.5, 100 mM NaCl, 3 mM DTT), and used in calorimetry experiments. The truncated forms of PBD were used for crystallography. […] The resulting protein was digested with TEV protease to cleave the tag, flowed through Ni column, and then finally subjected to gel filtration.

[4] = molecular target: T2, Plk1 PBD-p-Cdc25C interaction (Homo sapiens, UniProt P53350); experiment: GST-PBD p-Cdc25C pull-down competition in mitotic HeLa lysates; format: binding; settings: peptide added to mitotic HeLa lysates pre-incubated with GST-PBD
T2 construct: made in house; host or cells: GST-PBD from bacteria; p-Cdc25C endogenous in mitotic HeLa lysate

[5] = molecular target: T3, Plk1 (Homo sapiens, UniProt P53350); experiment: Pull-down of Plk1 from mitotic HeLa lysates with bead-immobilized peptides
Target sequence in this assay (P53350 whole entry): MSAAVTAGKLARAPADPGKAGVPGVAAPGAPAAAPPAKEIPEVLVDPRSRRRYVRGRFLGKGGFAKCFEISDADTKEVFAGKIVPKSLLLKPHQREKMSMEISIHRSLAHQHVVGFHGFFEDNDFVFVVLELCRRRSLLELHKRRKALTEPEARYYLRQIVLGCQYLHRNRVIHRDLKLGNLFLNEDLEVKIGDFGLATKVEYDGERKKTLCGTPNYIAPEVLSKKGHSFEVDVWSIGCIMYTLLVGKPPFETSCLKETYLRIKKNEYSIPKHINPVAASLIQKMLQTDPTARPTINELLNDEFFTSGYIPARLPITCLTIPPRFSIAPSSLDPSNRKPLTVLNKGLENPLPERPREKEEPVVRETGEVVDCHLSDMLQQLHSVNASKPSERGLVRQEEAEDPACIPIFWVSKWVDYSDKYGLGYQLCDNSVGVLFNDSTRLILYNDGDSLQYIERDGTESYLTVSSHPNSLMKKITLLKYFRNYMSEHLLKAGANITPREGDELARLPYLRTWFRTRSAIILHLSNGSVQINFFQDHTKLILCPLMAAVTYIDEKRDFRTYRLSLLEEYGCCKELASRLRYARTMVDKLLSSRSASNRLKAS

[6] = molecular target: T4, Plk2 PBD (Homo sapiens, UniProt Q9NYY3); experiment: Isothermal titration calorimetry with recombinant Plk2 PBD; format: binding
T4 construct: The PBD of human Plk2 (residues 373 to 685) was cloned as a MBP fusion; MBP (cleaved yes); made in house; host or cells: bacterial cells
T4 sequence (Q9NYY3 373-685): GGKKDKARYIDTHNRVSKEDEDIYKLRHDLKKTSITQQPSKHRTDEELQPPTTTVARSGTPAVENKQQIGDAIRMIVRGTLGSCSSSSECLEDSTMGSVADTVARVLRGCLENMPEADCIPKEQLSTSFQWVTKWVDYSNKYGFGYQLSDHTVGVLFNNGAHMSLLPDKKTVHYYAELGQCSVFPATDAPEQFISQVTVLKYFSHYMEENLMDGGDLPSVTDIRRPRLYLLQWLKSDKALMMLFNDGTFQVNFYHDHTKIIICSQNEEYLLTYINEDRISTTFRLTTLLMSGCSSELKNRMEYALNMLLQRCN

[7] = molecular target: T3, Plk1; experiment: Kd (µM)
Target sequence in this assay (P53350 2-603 limits assumed): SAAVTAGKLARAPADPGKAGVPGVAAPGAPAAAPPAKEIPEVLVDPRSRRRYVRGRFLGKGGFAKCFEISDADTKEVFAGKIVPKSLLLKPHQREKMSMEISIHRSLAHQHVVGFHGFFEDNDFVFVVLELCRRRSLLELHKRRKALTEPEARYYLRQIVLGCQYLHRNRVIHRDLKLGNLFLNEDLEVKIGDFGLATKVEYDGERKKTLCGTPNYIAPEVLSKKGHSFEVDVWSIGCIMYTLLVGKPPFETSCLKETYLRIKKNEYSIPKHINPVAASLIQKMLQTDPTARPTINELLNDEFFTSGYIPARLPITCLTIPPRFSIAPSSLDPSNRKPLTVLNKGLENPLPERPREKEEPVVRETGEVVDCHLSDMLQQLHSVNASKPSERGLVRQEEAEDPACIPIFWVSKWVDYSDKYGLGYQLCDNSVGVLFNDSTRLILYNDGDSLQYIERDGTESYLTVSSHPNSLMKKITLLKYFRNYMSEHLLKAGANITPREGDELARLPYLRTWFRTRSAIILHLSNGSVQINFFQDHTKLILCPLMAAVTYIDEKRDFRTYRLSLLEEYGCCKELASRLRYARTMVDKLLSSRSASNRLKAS

[8] = molecular target: Flag-Plk1(K82M) (Homo sapiens, UniProt P53350, K82M); experiment: Plk specificity pull-down from mixed HeLa lysates expressing Flag-Plk1, Flag-Plk2, Flag-Plk3 (Plk1 signal); settings: for Plk1 binding in specificity pull-down (in words): mixed Flag-Plk1/2/3 HeLa lysates
[9] = test system: HeLa cells; settings: two days after electroporation
[10] = competitor peptide at various concentrations
[11] = bead-immobilized peptide, mitotic HeLa lysates, phosphatase inhibitors

T2 sequence (P53350 326-603 limits assumed): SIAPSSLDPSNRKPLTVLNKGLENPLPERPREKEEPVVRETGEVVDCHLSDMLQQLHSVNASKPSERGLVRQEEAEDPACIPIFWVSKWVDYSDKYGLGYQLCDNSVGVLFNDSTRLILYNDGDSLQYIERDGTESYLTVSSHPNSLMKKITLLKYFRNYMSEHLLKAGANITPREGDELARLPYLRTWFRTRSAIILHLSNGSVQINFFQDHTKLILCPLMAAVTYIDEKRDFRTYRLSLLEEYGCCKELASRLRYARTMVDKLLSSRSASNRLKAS
T1 sequence (P53350 326-603): as the sequence (P53350 326-603 limits assumed) above
Sequence of HA-EGFP-Plk1 (P53350 whole entry): as the sequence (P53350 whole entry) above
Sequence of Flag-Plk1(K82M) (P53350 whole entry K82M): as the sequence (P53350 whole entry) above, with K82M counted along it

CC(=O)N1CCC[C@H]1C(=O)N[C@@H](CC(C)C)C(=O)N[C@@H](Cc1cncn1CCCCc1ccccc1)C(=O)N[C@@H](CO)C(=O)N[C@H](C(N)=O)[C@@H](C)OP(=O)(O)O [3h] (Ac-PL[X3]S[pT]-NH2)
PBD-binding inhibition / binding potency in ELISA (in words) [1]: gave the highest binding affinity for minor product 3

CC(=O)N1CCC[C@H]1C(=O)N[C@@H](CC(C)C)C(=O)N[C@@H](Cc1cnc[nH]1)C(=O)N[C@@H](CO)C(=O)N[C@H](C(N)=O)[C@@H](C)OP(=O)(O)OCCCCc1ccccc1 [4h (Example 15)] (Ac-PLHS[X4]-NH2)
PBD-binding inhibition / binding potency in ELISA (in words) [1, 10]: much less active than 3h, also less active than the WT

CC(=O)N(CCCCCCCc1ccccc1)CC(=O)N[C@@H](CC(C)C)C(=O)N[C@@H](Cc1c[nH]cn1)C(=O)N[C@@H](CO)C(=O)N[C@H](C(N)=O)[C@@H](C)OP(=O)(O)O [4r] (Ac-[X2]LHS[pT]-NH2)
PBD-binding inhibition / binding potency in ELISA (in words) [1]: gave the highest potency according to the ELISA assay results

CCCCCN(CC(=O)N[C@@H](CC(C)C)C(=O)N[C@@H](Cc1c[nH]cn1)C(=O)N[C@@H](CO)C(=O)N[C@H](C(N)=O)[C@@H](C)OP(=O)(O)O)C(C)=O [11A] (Ac-[NPentylGly]LHS[pT]-NH2)
PBD-binding inhibition / binding potency in ELISA (in words) [1]: slightly higher binding affinity

Nc1nccc(-c2ccc(O)c(-c3ccnc(N)n3)c2)n1 [BMI-1026]
centrosomal Plk1 signals (in words) [2]: greatly diminished the level of centrosomal Plk1 signals

CC(=O)N1C[C@H]2C[C@H]1C(=O)N[C@@H](CC(C)C)C(=O)N[C@@H](Cc1cnc[nH]1)C(=O)N[C@@H](CO)C(=O)N[C@H](C(N)=O)[C@@H](C)OP(=O)(O)OCCC/C=C\O2 [FA507]
PBD-binding inhibition / binding potency in ELISA (in words) [1, 10]: bound better than FA509

CC(=O)N[C@@H](Cc1c[nH]cn1)C(=O)N[C@@H](CO)C(=O)N[C@H](C(=O)N[C@@H](C)C(N)=O)[C@@H](C)OP(=O)(O)O [HSpTA] (Ac-HS[pT]A-NH2)
binding affinity to Plk1 PBD by ITC (in words) [3]: much lower affinities | disruption of pre-formed PBD-p-Cdc25C complex (in words) [4]: disrupted the complex weakly | Plk1 binding / precipitation by immobilized peptide (in words) [5, 11]: bound to Plk1 better than SpTAI

CC(=O)N[C@@H](CC(C)C)C(=O)N[C@@H](Cc1c[nH]cn1)C(=O)N[C@@H](CO)C(=O)N[C@H](C(=O)N[C@@H](C)C(N)=O)[C@@H](C)OP(=O)(O)O [LHSpTA, Ac-LHSpTA-NH2]
interaction with Plk2 PBD by ITC (in words) ([6]; limit of detection 1 kcal/mol): virtually no interactions with Plk2 | disruption of pre-formed PBD-p-Cdc25C complex (in words) [4]: disrupted the pre-formed PBD-p-Cdc25C complex nearly as efficiently as PLHSpT | Plk1 binding / precipitation by immobilized peptide (in words) [5]: bound to Plk1 almost as efficiently as PLHSpT

CC[C@H](C)[C@H](NC(=O)[C@H](C)NC(=O)[C@@H](NC(=O)[C@H](CO)NC(=O)[C@H](Cc1c[nH]cn1)NC(=O)[C@H](CC(C)C)NC(C)=O)[C@@H](C)OP(=O)(O)O)C(N)=O [LHSpTAI] (Ac-LHS[pT]AI-NH2)
binding affinity to Plk1 PBD by ITC (in words) [3]: slightly higher affinities than the 5-mer peptides | Kd [7]: 0.247 ± 0.05 µM | Plk1 binding / precipitation by immobilized peptide (in words) [5, 11]: efficiently precipitated Plk1; also recorded: binding affinity of the latter is equivalent to that of the former | Plk1 binding in specificity pull-down (in words) [8]: preferentially precipitates Plk1

CC(=O)N[C@@H](CC(C)C)C(=O)N[C@@H](Cc1c[nH]cn1)C(=O)N[C@@H](CO)C(=O)N[C@H](C(N)=O)[C@@H](C)OP(=O)(O)O [LHSpT] (Ac-LHS[pT]-NH2)
weaker binding than PLHSpT ([3]; ITC): ~50 fold | binding affinity to Plk1 PBD by ITC (in words) [3]: much lower affinities | disruption of pre-formed PBD-p-Cdc25C complex (in words) [4]: much less effective than PLHSpT; also recorded: disrupted the complex weakly | diminished binding affinity to Plk1 compared with PLHSpT ([5]; bead-immobilized peptide, mitotic HeLa lysates (FIG. 1A)): ~7 fold | Plk1 binding / precipitation by immobilized peptide (in words) [5, 11]: bound to Plk1 better than SpTAI

Biotin-(CH)6-PLHS-F2Pmab-A-NH2 [biotin-F2Pmab]
Plk1 delocalization and apoptotic cell death (in words) [9]: leads to Plk1 delocalization and apoptotic cell death

HSpT: p-T78 peptide lacking both the Pro and Leu residues (His-Ser-[pT])
Plk1 binding / precipitation by immobilized peptide (in words) [5, 11]: did not exhibit any significant level of binding

HSpTAI: 5-mer p-T78 peptide lacking both Pro and Leu, bearing two additional C-terminal residues ({Cys-(CH2)6}-HS[pT]AI)
Plk1 binding / precipitation by immobilized peptide (in words) [5, 11]: bound to Plk1 only weakly

MLHSpT: Pro-4 to Met-4 mutant of PLHSpT (MLHS[pT])
Plk1 binding in specificity pull-down (in words) [8]: greatly diminished level of Plk1 PBD binding

PLHSpTA: 6-mer p-T78 peptide (PLHS[pT]A; also: in pull-downs N-terminal Cys-(CH2)6 linker cross-linked to beads)
binding affinity to Plk1 PBD by ITC (in words) [3]: slightly higher affinities than the 5-mer peptides

PLHSpTAIYAD: 10-mer p-T78 peptide (PLHS[pT]AIYAD)
Plk1 binding / precipitation by immobilized peptide (in words) [5, 11]: precipitated Plk1 from mitotic HeLa cells as the major binding protein

PLQSpT: His-2 to Gln mutant of PLHSpT (PLQS[pT])
initial heats of interaction ([6]; ITC, peptide titrated into Plk2 PBD, no saturable binding): ~-4.6 kJ/mol

PPHSpT: derivative of PLHSpT with Pro at the −3 position (PPHS[pT]; also: N-acetyl in the crystal (Ac-PPHSpT))
diminished binding to Plk1 compared with PLHSpT ([8]; mixed Flag-Plk1/2/3 HeLa lysates (FIG. 3D)): 20 fold
